Data reported in the METLIN SMRT retention time set (Domingo-Almenara et al. 2019).

Test: gradient 5% acetonitrile 3 min, to 50% in 2 min, to 85% in 15 min, held 3 min, 100 µL/min
Conditions: column: Zorbax Extend-C18 2.1 x 50 mm; eluents: water / acetonitrile, 0.1% formic acid
Method in brief: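 Each retention time is based on an adduct peak selected computationally and verified by manual inspection. Measurements used HPLC–quadrupole time-of-flight mass spectrometry in positive and negative ionization mode on mixtures of ~100 pure standards. Chromatography ran on a Zorbax Extend-C18 column (2.1 × 50 mm, 1.8 μm) at 100 μL/min with water and acetonitrile, each containing 0.1% formic acid, and dead and dwell volumes of 40 μL and 900 μL.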

| Compound | RP-LC retention time [s] |
| --- | --- |
| O=C(Nc1ccc2c(c1)OCO2)C1CCN(c2cc(N3CCCC3)ncn2)CC1 | 642 |
| CN(C)S(=O)(=O)c1ccc(-c2nnc(C(=O)NC3CCN(Cc4ccccc4)CC3)o2)cc1 | 754 |
| O=C(NC1CCN(c2cc(-c3ccccc3)[nH]n2)C1)c1cc2ccccc2[nH]1 (stereo not drawn) | 739 |
| CCCNC(=O)C1CCCN(c2nc(C)nc3onc(CC)c23)C1 (stereo not drawn) | 743 |
| O=C1COc2ccc(S(=O)(=O)N3CCCC3C(=O)N3CCN(c4ccccc4F)CC3)cc2N1 (stereo not drawn) | 790 |
| O=C([C@@H]1C[C@H](F)CN1S(=O)(=O)c1ccccc1)N1CCOCC1 | 643 |
| O=C(NC1CC1)c1cccnc1N1CCSCC1 | 623 |
| CC(C)n1cnc(S(=O)(=O)N2CCCC(C(=O)NCc3ccc(N(C)C)cc3)C2)c1 (stereo not drawn) | 597 |
| CCCC(=O)Nc1ccc(CCc2nc3ccc(C(=O)NCCC(C)C)cc3[nH]2)cc1 | 674 |
| COc1ccc(Cl)cc1N1CC(c2nc(-c3ccccc3)no2)CC1=O (stereo not drawn) | 973 |
| Cc1cccc(-c2nc(CN(c3ccccc3)S(=O)(=O)c3cccs3)c(C)o2)c1 | 1240 |
| CCc1cccc(C)c1Nc1c(-c2ccc(C)cc2)nc2nc(C)cc(C)n12 | 880 |
| O=C(NCc1ccccc1Br)c1cn2ccccc2n1 | 736 |
| COc1ccc(N2CC(c3noc(-c4ccc(Cl)cc4)n3)CC2=O)cc1 (stereo not drawn) | 990 |
| Cc1ccnc(Nc2nc(-c3cc(C)c(C)cc3C)cs2)c1 | 953 |
| Cn1c(=O)c2ccn(CC(=O)N3CCC(C(N)=O)(N4CCCCC4)CC3)c2n(C)c1=O | 728 |
| CC(=O)N1CC(C)Oc2ccc(S(=O)(=O)N3CCC(c4ccncc4)CC3)cc21 (stereo not drawn) | 572 |
| COc1ccc(S(=O)(=O)N2CC(F)(F)C[C@H]2c2nc(C)no2)cc1 | 851 |
| COc1ccccc1NC1=NS(=O)(=O)c2ccccc21 | 769 |
| Cc1nn(C(C)C(=O)Nc2ccc(Cl)cn2)c(=O)c2c(-n3cccc3)n(-c3ccccc3)nc12 (stereo not drawn) | 1120 |
| CCC(=O)Nc1ccc(C2(C(=O)NCCC(C)C)CCCCC2)cc1 | 936 |
| O=C(CCCc1nnc2c(=O)n(-c3cccc(F)c3)ccn12)NCCc1c[nH]c2ccccc12 | 707 |
| CCOC(=O)c1[nH]c(C)c(CCC(=O)N2CCC(C(=O)NCCc3ccccc3)CC2)c1C | 795 |

| Compound | RP-LC retention time [s] |
| --- | --- |
| CC(=O)N1CCC2(CC1)CC(CCO)CCO2 (stereo not drawn) | 575 |
| CC(C)NC(=O)c1ccc(-c2nc3cc(NS(=O)(=O)Cc4cccc(F)c4)ccc3n2C)cc1 | 687 |
| O=C(Nc1ccc2c(c1)OCO2)C1CCCN(S(=O)(=O)Cc2ccc(Cl)cc2)C1 (stereo not drawn) | 964 |
| CCc1sc(NC(=O)CCc2ccccc2)nc1-c1ccccc1 | 1150 |
| CC(C)n1c(=O)oc2cc(S(=O)(=O)N3CCN(C(=O)C4(c5ccccc5)CC4)CC3)ccc21 | 902 |
| Cn1c(=O)oc2cc(-c3noc(-c4ccc(CS(=O)(=O)c5ccccc5)cc4)n3)ccc21 | 959 |
| COc1ccccc1CNC1=NCCNC12CCN(S(=O)(=O)c1ccc(F)cc1)CC2 | 704 |
| O=C(c1ccc(-c2ccc3c(c2)CCN3S(=O)(=O)c2cccc(F)c2)cc1)N1CCOCC1 | 937 |
| CCOC(=O)CNC(=O)NCc1cccn1Cc1ccc(Cl)cc1 | 843 |
| Cc1ccc(Cl)c(NS(=O)(=O)c2cc(-c3[nH]ncc3C(=O)N(C)C)oc2C)c1 | 717 |
| Cc1ccc(C)c(S(=O)(=O)NCc2c(-c3ccccc3)nc3sc(C)nn23)c1 | 916 |
| CCN1C(=O)COc2ccc(-c3nc(NC(=O)c4ccccc4Br)sc3C)cc21 | 1010 |
| Cc1csc(-c2cc(S(=O)(=O)NCC(C)c3ccccc3)c(C)s2)n1 (stereo not drawn) | 1110 |
| CCn1cc(-c2nc(C(=O)Nc3ccc(C)cc3)cs2)c2cccnc21 | 1160 |
| Cc1sc(NC(=O)c2ccccc2Br)nc1-c1ccc2c(c1)N(C)C(=O)CO2 | 960 |
| O=C(CCc1c[nH]c2ccccc12)NCCc1c[nH]c2ccc(Cl)cc12 | 861 |
| CC(C(=O)N1CCN(c2cc(=O)n(C)c(=O)n2C)CC1)N1C(=O)COc2ccccc21 (stereo not drawn) | 627 |
| CC(=O)OC1CCN(C(=O)NC(C)(C)C)CC1 | 696 |
| COc1ccc(Cl)cc1S(=O)(=O)N1CCCC(Cn2cnc3cccnc32)C1 (stereo not drawn) | 708 |
| C=CCNC(=O)N1CCCN(C2=NS(=O)(=O)C(c3ccccc3)=C2C)CC1 | 713 |
| Cc1nnc(-c2coc(S(=O)(=O)N(C)C3CCCCC3)c2)o1 | 906 |
| COc1ccc(-c2noc(C3CC(=O)N(c4ccc5c(c4)OCO5)C3)n2)cc1 (stereo not drawn) | 881 |
| CCN1C(=O)COc2ccc(-c3noc(-c4ccc(CS(=O)(=O)c5ccc(C)cc5)cc4)n3)cc21 | 1100 |

Continued, values first:

| RP-LC retention time [s] | Compound |
| --- | --- |
| 726 | CCn1cnc(S(=O)(=O)N2CCCC(C(=O)Nc3ccc(F)cc3C)C2)c1 (stereo not drawn) |
| 835 | COc1ccc(OC)c(NC(=O)N2CCN(c3ccc(=O)n(-c4ccc(C)cc4)n3)CC2)c1 |
| 1380 | COc1cc(Cl)c(C)cc1NC(=O)C1CCCN(c2nc3ccccc3nc2OC)C1 (stereo not drawn) |
| 878 | O=C(CCSc1ccc(F)cc1)Nc1nc2c(s1)CCC2 |
| 795 | COc1cc(Cl)ccc1C(=O)NC1CCN(c2cc(-c3cccs3)[nH]n2)C1 (stereo not drawn) |
| 655 | CCOCCCNC(=O)C1CCCN(c2nnc(C)c3c(C)n(-c4ccccc4)nc23)C1 (stereo not drawn) |
| 649 | CCc1nnc2cc(N3CCN(C(=O)Nc4ccc(C)cc4)CC3)cnn12 |
| 948 | Cc1cc(F)ccc1NC(=O)Cn1cc2c(n1)CCC(C)C2 (stereo not drawn) |
| 1250 | Cc1ccc(CNC(=O)c2cc(C(C)C)n3nccc3n2)cc1 |
| 833 | Cc1ccc(CNC(=O)c2cccc(C3CCCN(C(=O)NC(C)C)C3)c2)o1 (stereo not drawn) |
| 579 | Cc1cc(=O)oc2c(C)c(OCC(O)CN3CCC(C(N)=O)CC3)ccc12 (stereo not drawn) |
| 801 | CCn1ccc(NC(=O)Nc2ccccc2C)n1 |
| 691 | COCCCNC(=O)N1CC(n2cc(COc3ccc(F)cc3)nn2)C1 |
| 731 | Cc1ccc(C)c(NC(=O)Cn2cnc3nc(N4CCCC(C(=O)NC(C)C)C4)sc3c2=O)c1 (stereo not drawn) |
| 810 | O=C(NCCC1CCN(C(=O)Nc2cc(F)cc(F)c2)CC1)C1CCC1 |
| 840 | COc1cccc(CNC(=O)NC2CCN(c3cc(C)cc(C)c3)C2=O)c1 (stereo not drawn) |
| 608 | O=C(Cc1cccs1)NC1CCN(c2cc(N3CCCC3)cnn2)C1 (stereo not drawn) |
| 540 | c1ccc(CNc2nc(C3CC3)nc3c2CCC3)nc1 |
| 687 | CCC(=O)N1CCc2c(C(=O)NC(C)C)cccc21 |
| 850 | Cc1cc(-c2nnc(C3CC3)o2)c(C)n1CC(=O)NCc1ccc(Cl)cc1 |
| 671 | Cc1nn(C)c(C)c1S(=O)(=O)N1CCC(Cc2nncn2-c2ccccc2)CC1 |

| RP-LC retention time [s] | Compound |
| --- | --- |
| 799 | COc1cc2c(cc1OC)CN(C(=O)CCc1sc(C)nc1-c1cccs1)CC2 |
| 644 | COCCn1c(C)cc(O)c(C(c2ccc(Cl)cc2)N2CCC(C)CC2)c1=O (stereo not drawn) |
| 959 | COc1ccccc1N1CCN(c2cc(SCC(=O)Nc3ccc(F)cc3C)ncn2)CC1 |
| 772 | COc1cc(C2CC(=O)N(CC(=O)NCC3CCCO3)c3ccccc3S2)cc(OC)c1OC (stereo not drawn) |
| 618 | Cc1nc(-c2csc(S(=O)(=O)N3CCC(C(=O)NCc4cccnc4)CC3)c2)no1 |
| 972 | Cc1nn(C)c2nc(OC(C)C(=O)NCCc3ccccc3)cc(C(F)(F)F)c12 (stereo not drawn) |
| 816 | CCN1C(=O)c2cccnc2Sc2cc(NC(=O)Cc3ccc(F)cc3)ccc21 |
| 681 | COc1ccc(CCC(=O)N2CCC(c3cc(N)on3)CC2)cc1 |
| 649 | COc1ccc(NC(=O)N2CCC3(CC2)NC(=O)c2ccccc2N3C)c(OC)c1 |
| 1050 | N#Cc1cccc(C(=O)N2CCCC2c2nc(-c3cccc(C(F)(F)F)c3)no2)c1 (stereo not drawn) |
| 593 | Cc1ccc(NC(=O)N2CCCC2c2nc(-c3ccccc3C)no2)cc1C (stereo not drawn) |
| 703 | COc1ccc(NS(=O)(=O)c2ccc(N3C(=O)CCC3=O)cc2)c(OC)c1 |
| 809 | CCn1cnc(S(=O)(=O)N2CCCC(C(=O)Nc3ccc(C)cc3Cl)C2)c1 (stereo not drawn) |
| 740 | O=C(CC1CCN(C(=O)Nc2ccc(F)cc2)CC1)N1CCCCC1 |
| 764 | CCn1c(N2CCCC(C(=O)NCc3cccc(OC)c3)C2)cc(=O)n(C)c1=O (stereo not drawn) |
| 730 | CCc1cccc(NC(=O)Nc2ccc3nnc(C)n3c2)c1 |
| 885 | Cc1oc(C2CCN(C(=O)Nc3ccc(Cl)cc3F)CC2)nc1C(=O)N1CCCCC1 |
| 675 | Cc1ncc2c(n1)CCN(C(=O)c1ccc(Br)cc1)C2 |
| 837 | O=C(CN1C(=O)NC(c2ccccc2Cl)C2=C1COC2=O)Nc1ccc(F)c(Cl)c1 (stereo not drawn) |
| 950 | O=C(Nc1ccccc1F)C1CCCN(S(=O)(=O)Cc2ccccc2)C1 (stereo not drawn) |
| 827 | CCc1nc2cc(N3CCC(C(=O)Nc4ccc(OC)cc4)CC3)cnc2nc1CC |
